According to patent US20240300932A1, “N-PHENYLIMINE DERIVATIVE AND PREPARATION METHOD AND USE THEREOF” (Guizhou University, priority 2023, published 2024):

Legend:
Assay in all cases: Post-emergence herbicidal activity test (stem and leaf spray, pot culture)
Type in all cases: in vivo
Conditions in all cases: 3 weeks after spraying
Echinochloa crusgalli = tested on: Echinochloa crusgalli
Description: (§1) The weeds were cultivated in a 180 mm×140 mm plastic nutrient pot by a pot-culture method, placed in an enamel tray, and the plastic nutrient pots were filled with surface soil (⅘ of a depth) collected from a farmland and air-dried and sieved, and a soil humidity was controlled at 20% in the initial stage. Weed seeds with plump and uniform grains were selected, soaked in warm water at 25° C. for 6 h, and germinated in a biochemical incubator (dark) at 28° C. The freshly exposed weed seeds were evenly placed on the soil surface, and then covered with 0.5 cm to 1 cm of soil according to the size of the seeds. The weeds are cultivated in a controlled sunlight greenhouse at 20° C. to 30° C., under natural light, and a relative humidity of 57% to 72%. The soil was loam, including 1.63% of organic matters, with a pH value of 7, 84.3 mg/kg of alkaline nitrogen, 38.5 mg/kg of available phosphorus, and 82.1 mg/kg of available potassium.
(§2) Each treatment was repeated 2 times, each treatment included 12 pots, and 20 weed seeds were sown in each pot. Pesticide was applied in the test for 1 time in total. When the weeds grew to 1.5- to 2-leaf stage, thinning was conducted, with 10 weeds in each pot, and 30 weeds were kept in each treatment.
(§3) The cultivated weeds were placed on trays with an area of 0.1 m^2, and stems and leaves were sprayed with a sprayer. After applying a pesticide, the pesticide applied weeds were moved into a greenhouse for routine cultivation.
(§4) 2 weeks after sowing, the test plants were treated at the 2- to 3-leaf stage: the compounds of the present disclosure for testing were dissolved in acetone separately, and added with Tween 80, an emulsifiable oil of 1.5 liters/ha methyl oleate was added as a synergist, and an obtained mixture was diluted with certain water to a certain concentration solution. The solution was sprayed onto the plants using a spray tower. After spraying, the weeds were cultivated in the greenhouse for 3 weeks, and the experimental effects on the weeds were counted. The effective concentrations of the compounds were 10 g/mu, 5 g/mu, and 2.5 g/mu, the experiment was repeated three times, and an average result was taken.
(§5) The activity level criteria for plant destruction (i.e. growth control rate) are as follows: • Grade 5: the growth control rate is greater than or equal to 85%; • Grade 4: the growth control rate is greater than or equal to 60% and less than 85%; • Grade 3: the growth control rate is greater than or equal to 40% and less than 60%; • Grade 2: the growth control rate is greater than or equal to 20% and less than 40%; • Grade 1: the growth control rate is greater than or equal to 5% and less than 20%; and • Grade 0: the growth control rate is less than 5%.
(§6) The growth control rate is a fresh weight control rate.

Abutilon theophrasti = tested on: Abutilon theophrasti
Description: as §1, §2, §3, §4, §5, §6

Amaranthus retroflexus = tested on: Amaranthus retroflexus
Description: as §1, §2, §3, §4, §5, §6

Portulaca oleracea = tested on: Portulaca oleracea
Description: as §1, §2, §3, §4, §5, §6

Setaria viridis = tested on: Setaria viridis
Description: as §1, §2, §3, §4, §5, §6

Trifoliumre pensL. = tested on: Trifoliumre pensL.
Description: (1) Post-Emergence Stem and Leaf Spray Treatment: The weeds were cultivated in a 180 mm×140 mm plastic nutrient pot by a pot-culture method, placed in an enamel tray, and the plastic nutrient pots were filled with surface soil (⅘ of a depth) collected from a farmland and air-dried and sieved, and a soil humidity was controlled at 20% in the initial stage. Weed seeds with plump and uniform grains were selected, soaked in warm water at 25° C. for 6 h, and germinated in a biochemical incubator (dark) at 28° C. The freshly exposed weed seeds were evenly placed on the soil surface, and then covered with 0.5 cm to 1 cm of soil according to the size of the seeds. The weeds are cultivated in a controlled sunlight greenhouse at 20° C. to 30° C., under natural light, and a relative humidity of 57% to 72%. The soil was loam, including 1.63% of organic matters, with a pH value of 7, 84.3 mg/kg of alkaline nitrogen, 38.5 mg/kg of available phosphorus, and 82.1 mg/kg of available potassium. Each treatment was repeated 2 times, each treatment included 12 pots, and 20 weed seeds were sown in each pot. Pesticide was applied in the test for 1 time in total. When the weeds grew to 1.5- to 2-leaf stage, thinning was conducted, with 10 weeds in each pot, and 30 weeds were kept in each treatment. The cultivated weeds were placed on trays with an area of 0.1 m^2, and stems and leaves were sprayed with a sprayer. After applying a pesticide, the pesticide applied weeds were moved into a greenhouse for routine cultivation. 2 weeks after sowing, the test plants were treated at the 2- to 3-leaf stage: the compounds of the present disclosure for testing were dissolved in acetone separately, and added with Tween 80, an emulsifiable oil of 1.5 liters/ha methyl oleate was added as a synergist, and an obtained mixture was diluted with certain water to a certain concentration solution. The solution was sprayed onto the plants using a spray tower. After spraying, the weeds were cultivated in the greenhouse for 3 weeks, and the experimental effects on the weeds were counted. The effective concentrations of the compounds were 10 g/mu, 5 g/mu, and 2.5 g/mu, the experiment was repeated three times, and an average result was taken.

Row | Compound | Post-emergence herbicidal activity, E. crusgalli (grade) (Echinochloa crusgalli; dosage 2.5 g/mu) | Post-emergence herbicidal activity, E. crusgalli (grade) (Echinochloa crusgalli; dosage 5 g/mu) | Post-emergence herbicidal activity, E. crusgalli (grade) (Echinochloa crusgalli; dosage 10 g/mu) | Post-emergence herbicidal activity, A. theophrasti (grade) (Abutilon theophrasti; dosage 2.5 g/mu) | Post-emergence herbicidal activity, A. theophrasti (grade) (Abutilon theophrasti; dosage 5 g/mu) | Post-emergence herbicidal activity, A. theophrasti (grade) (Abutilon theophrasti; dosage 10 g/mu) | Post-emergence herbicidal activity, A. retroflexus (grade) (Amaranthus retroflexus; dosage 2.5 g/mu) | Post-emergence herbicidal activity, A. retroflexus (grade) (Amaranthus retroflexus; dosage 5 g/mu) | Post-emergence herbicidal activity, A. retroflexus (grade) (Amaranthus retroflexus; dosage 10 g/mu) | Post-emergence herbicidal activity, P. oleracea (grade) (Portulaca oleracea; dosage 2.5 g/mu) | Post-emergence herbicidal activity, P. oleracea (grade) (Portulaca oleracea; dosage 5 g/mu) | Post-emergence herbicidal activity, P. oleracea (grade) (Portulaca oleracea; dosage 10 g/mu) | Post-emergence herbicidal activity, S. viridis (grade) (Setaria viridis; dosage 2.5 g/mu) | Post-emergence herbicidal activity, S. viridis (grade) (Setaria viridis; dosage 5 g/mu) | Post-emergence herbicidal activity, S. viridis (grade) (Setaria viridis; dosage 10 g/mu) | Post-emergence herbicidal activity, Trifoliumre pensL. (grade) (Trifoliumre pensL.; dosage 2.5 g/mu) | Post-emergence herbicidal activity, Trifoliumre pensL. (grade) (Trifoliumre pensL.; dosage 5 g/mu) | Post-emergence herbicidal activity, Trifoliumre pensL. (grade) (Trifoliumre pensL.; dosage 10 g/mu)
1 | O=C1C2=C(CCCC2)C(=O)N1c1cc(OCc2nc(-c3ccccc3Cl)no2)c(Cl)cc1F [Compound A8] | 1 (Grade 1: the growth control rate is greater than or equal to 5% and less than 20%) | 2 (Grade 2: the growth control rate is greater than or equal to 20% and less than 40%) | 3 (Grade 3: the growth control rate is greater than or equal to 40% and less than 60%) | 5 (Grade 5: the growth control rate is greater than or equal to 85%) | 5 (Grade 5: the growth control rate is greater than or equal to 85%) | 5 (Grade 5: the growth control rate is greater than or equal to 85%) | 5 (Grade 5: the growth control rate is greater than or equal to 85%) | 5 (Grade 5: the growth control rate is greater than or equal to 85%) | 5 (Grade 5: the growth control rate is greater than or equal to 85%) | 4 (Grade 4: the growth control rate is greater than or equal to 60% and less than 85%) | 5 (Grade 5: the growth control rate is greater than or equal to 85%) | 5 (Grade 5: the growth control rate is greater than or equal to 85%) | 2 (Grade 2: the growth control rate is greater than or equal to 20% and less than 40%) | 3 (Grade 3: the growth control rate is greater than or equal to 40% and less than 60%) | 4 (Grade 4: the growth control rate is greater than or equal to 60% and less than 85%) | 4 (Grade 4: the growth control rate is greater than or equal to 60% and less than 85%) | 5 (Grade 5: the growth control rate is greater than or equal to 85%) | 5 (Grade 5: the growth control rate is greater than or equal to 85%)
2 | Cc1ccc(-c2noc(COc3cc(N4C(=O)C5=C(CCCC5)C4=O)c(F)cc3Cl)n2)c(F)c1 [Compound A9] | 1 (Grade 1: the growth control rate is greater than or equal to 5% and less than 20%) | 2 (Grade 2: the growth control rate is greater than or equal to 20% and less than 40%) | 3 (Grade 3: the growth control rate is greater than or equal to 40% and less than 60%) | 5 (Grade 5: the growth control rate is greater than or equal to 85%) | 5 (Grade 5: the growth control rate is greater than or equal to 85%) | 5 (Grade 5: the growth control rate is greater than or equal to 85%) | 5 (Grade 5: the growth control rate is greater than or equal to 85%) | 5 (Grade 5: the growth control rate is greater than or equal to 85%) | 5 (Grade 5: the growth control rate is greater than or equal to 85%) | 4 (Grade 4: the growth control rate is greater than or equal to 60% and less than 85%) | 5 (Grade 5: the growth control rate is greater than or equal to 85%) | 5 (Grade 5: the growth control rate is greater than or equal to 85%) | 2 (Grade 2: the growth control rate is greater than or equal to 20% and less than 40%) | 3 (Grade 3: the growth control rate is greater than or equal to 40% and less than 60%) | 4 (Grade 4: the growth control rate is greater than or equal to 60% and less than 85%) | 4 (Grade 4: the growth control rate is greater than or equal to 60% and less than 85%) | 5 (Grade 5: the growth control rate is greater than or equal to 85%) | 5 (Grade 5: the growth control rate is greater than or equal to 85%)
3 | O=C1C2=C(CCCC2)C(=O)N1c1cc(OCc2nc(-c3cnc(C(F)(F)F)cc3Cl)no2)c(Cl)cc1F [Compound A10] | 1 (Grade 1: the growth control rate is greater than or equal to 5% and less than 20%) | 2 (Grade 2: the growth control rate is greater than or equal to 20% and less than 40%) | 3 (Grade 3: the growth control rate is greater than or equal to 40% and less than 60%) | 5 (Grade 5: the growth control rate is greater than or equal to 85%) | 5 (Grade 5: the growth control rate is greater than or equal to 85%) | 5 (Grade 5: the growth control rate is greater than or equal to 85%) | 5 (Grade 5: the growth control rate is greater than or equal to 85%) | 5 (Grade 5: the growth control rate is greater than or equal to 85%) | 5 (Grade 5: the growth control rate is greater than or equal to 85%) | 4 (Grade 4: the growth control rate is greater than or equal to 60% and less than 85%) | 5 (Grade 5: the growth control rate is greater than or equal to 85%) | 5 (Grade 5: the growth control rate is greater than or equal to 85%) | 2 (Grade 2: the growth control rate is greater than or equal to 20% and less than 40%) | 3 (Grade 3: the growth control rate is greater than or equal to 40% and less than 60%) | 4 (Grade 4: the growth control rate is greater than or equal to 60% and less than 85%) | 4 (Grade 4: the growth control rate is greater than or equal to 60% and less than 85%) | 5 (Grade 5: the growth control rate is greater than or equal to 85%) | 5 (Grade 5: the growth control rate is greater than or equal to 85%)
